Reference: ChEMBL document CHEMBL3632615, “N(6)-(2-Hydroxyethyl)adenosine in the Medicinal Mushroom Cordyceps cicadae Attenuates Lipopolysaccharide-Stimulated Pro-inflammatory Responses by Suppressing TLR4-Mediated NF-κB Signaling Pathways” (J Nat Prod, 2015)
Activity calls are given as the source filed them. The calls are words filed in the database; no cut-off is given here.

Columns and labels:
Format in all cases: cell-based
[1] = molecular target: T1, Toll-like receptor 4 (Mus musculus) (UniProt Q9QUK6); experiment: Inhibition of TLR4-mediated NF-kappaB signaling pathway in BALB/c mouse RAW264.7 cells assessed as suppression of LPS-stimulated TNF-alpha production at 1 to 10 ug/ml preincubated for 1 hr followed by LPS challenge measured after 6 hrs by immunoblot analysis
T1 sequence (whole entry): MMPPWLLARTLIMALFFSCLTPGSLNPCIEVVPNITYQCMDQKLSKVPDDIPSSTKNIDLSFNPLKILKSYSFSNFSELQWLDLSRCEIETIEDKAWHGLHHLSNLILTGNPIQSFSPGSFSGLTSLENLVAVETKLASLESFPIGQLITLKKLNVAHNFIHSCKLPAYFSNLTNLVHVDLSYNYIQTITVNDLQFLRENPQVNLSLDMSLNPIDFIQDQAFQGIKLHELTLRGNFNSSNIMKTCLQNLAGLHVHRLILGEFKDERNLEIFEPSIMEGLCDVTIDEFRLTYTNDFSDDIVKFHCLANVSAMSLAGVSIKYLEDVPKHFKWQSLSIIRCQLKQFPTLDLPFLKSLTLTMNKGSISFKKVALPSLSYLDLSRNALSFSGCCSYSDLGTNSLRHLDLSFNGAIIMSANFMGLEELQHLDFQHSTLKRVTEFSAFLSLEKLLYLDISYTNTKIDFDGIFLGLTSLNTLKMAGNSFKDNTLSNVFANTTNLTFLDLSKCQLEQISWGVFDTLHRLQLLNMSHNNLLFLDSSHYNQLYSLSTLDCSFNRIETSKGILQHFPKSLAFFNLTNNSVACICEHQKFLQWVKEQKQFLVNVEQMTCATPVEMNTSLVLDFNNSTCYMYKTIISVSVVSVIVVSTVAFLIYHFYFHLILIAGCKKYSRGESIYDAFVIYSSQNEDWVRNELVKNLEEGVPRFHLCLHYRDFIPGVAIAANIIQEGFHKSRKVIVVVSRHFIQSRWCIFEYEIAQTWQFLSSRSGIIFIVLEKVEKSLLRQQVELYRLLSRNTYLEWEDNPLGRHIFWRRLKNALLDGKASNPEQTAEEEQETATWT

[2] = molecular target: T1, Toll-like receptor 4 (Mus musculus); experiment: Inhibition of TLR4-mediated NF-kappaB signaling pathway in BALB/c mouse RAW264.7 cells assessed as suppression of LPS-stimulated TNF-alpha production at 0.5 to 5 ug/ml preincubated for 1 hr followed by LPS challenge measured after 6 hrs by immunoblot analysis in presence of adenosine
[3] = molecular target: T1, Toll-like receptor 4 (Mus musculus); experiment: Inhibition of TLR4-mediated NF-kappaB signaling pathway in BALB/c mouse RAW264.7 cells assessed as suppression of LPS-stimulated TNF-alpha production at 0.5 to 5 ug/ml preincubated for 1 hr followed by LPS challenge measured after 6 hrs by immunoblot analysis in presence of HEA
[4] = molecular target: T1, Toll-like receptor 4 (Mus musculus); experiment: Inhibition of TLR4-mediated NF-kappaB signaling pathway in BALB/c mouse RAW264.7 cells assessed as suppression of LPS-stimulated PGE2 production at 1 to 10 ug/ml preincubated for 1 hr followed by LPS challenge measured after 6 hrs by immunoblot analysis
[5] = molecular target: T1, Toll-like receptor 4 (Mus musculus); experiment: Inhibition of TLR4-mediated NF-kappaB signaling pathway in BALB/c mouse RAW264.7 cells assessed as suppression of LPS-stimulated PGE2 production at 0.5 to 5 ug/ml preincubated for 1 hr followed by LPS challenge measured after 6 hrs by immunoblot analysis in presence of adenosine
[6] = molecular target: T1, Toll-like receptor 4 (Mus musculus); experiment: Inhibition of TLR4-mediated NF-kappaB signaling pathway in BALB/c mouse RAW264.7 cells assessed as suppression of LPS-stimulated PGE2 production at 0.5 to 5 ug/ml preincubated for 1 hr followed by LPS challenge measured after 6 hrs by immunoblot analysis in presence of HEA
[7] = molecular target: T1, Toll-like receptor 4 (Mus musculus); experiment: Inhibition of TLR4-mediated NF-kappaB signaling pathway in BALB/c mouse RAW264.7 cells assessed as suppression of LPS-stimulated TNF-alpha production at 2.5 to 10 ug/ml preincubated for 1 hr followed by LPS challenge measured after 6 hrs by immunoblot analysis
[8] = molecular target: T1, Toll-like receptor 4 (Mus musculus); experiment: Inhibition of TLR4-mediated NF-kappaB signaling pathway in BALB/c mouse RAW264.7 cells assessed as suppression of LPS-stimulated TNF-alpha production at 0.5 to 5 ug/ml preincubated for 1 hr followed by LPS challenge measured after 6 hrs by immunoblot analysis in presence of cordycepin
[9] = molecular target: T1, Toll-like receptor 4 (Mus musculus); experiment: Inhibition of TLR4-mediated NF-kappaB signaling pathway in BALB/c mouse RAW264.7 cells assessed as suppression of LPS-stimulated PGE2 production at 2.5 to 10 ug/ml preincubated for 1 hr followed by LPS challenge measured after 6 hrs by immunoblot analysis
[10] = molecular target: T1, Toll-like receptor 4 (Mus musculus); experiment: Inhibition of TLR4-mediated NF-kappaB signaling pathway in BALB/c mouse RAW264.7 cells assessed as suppression of LPS-stimulated PGE2 production at 0.5 to 5 ug/ml preincubated for 1 hr followed by LPS challenge measured after 6 hrs by immunoblot analysis in presence of cordycepin

| inhibition [1] | inhibition [2] | inhibition [3] | inhibition [4] | inhibition [5] | inhibition [6] | inhibition [7] | inhibition [8] | inhibition [9] | inhibition [10] | Structure (SMILES) |
| --- | --- | --- | --- | --- | --- | --- | --- | --- | --- | --- |
| Active | inactive | inactive | Active | inactive | inactive | – | – | – | – | Nc1ncnc2c1ncn2[C@@H]1O[C@H](CO)C[C@H]1O |
| – | – | inactive | – | – | inactive | Active | inactive | Active | inactive | Nc1ncnc2c1ncn2[C@@H]1O[C@H](CO)[C@@H](O)[C@H]1O |
